Experimental data published in ChEMBL document CHEMBL2057146, “Improvement by sodium dl-α-tocopheryl-6-O-phosphate treatment of moisture-retaining ability in stratum corneum through increased ceramide levels” (Bioorg Med Chem, 2012).

Tests used:
Homo sapiens [1] = experiment: Increase in ceramide content in human skin at 0.3 to 1% administered topically after 11 days relative to vehicle treated control; assay type: functional
Keratinocyte [2] = experiment: Increase in ceramide content in keratinocytes at 1% after 6 days relative to vehicle treated control; assay type: functional
Mus musculus [3] = experiment: Increase in ceramide content in hairless mouse skin at 1% v/v administered topically after 4 weeks relative to vehicle treated control; assay type: functional
Mus musculus [4] = experiment: Increase in ceramide content in hairless mouse skin at 1% w/v administered topically after 30 hrs relative to vehicle treated control; assay type: functional
Homo sapiens [5] = experiment: Increase in ceramide content in human skin at 2% administered topically after 4 weeks relative to vehicle treated control; assay type: functional
Homo sapiens [6] = experiment: Increase in ceramide content in human skin at 4% administered topically after 4 weeks relative to vehicle treated control; assay type: functional
Keratinocyte [7] = experiment: Increase in ceramide content in normal human keratinocytes at 1 to 30 uM after 6 days relative to vehicle treated control; assay type: functional
[8] = Upregulation of SPTLCB1 mRNA expression in neonatal human foreskin keratinocytes at 10 uM after 4 days relative to vehicle treated control; assay type: functional, cell-based; settings: Keratinocyte
[9] = Upregulation of SPTLCB2 mRNA expression in neonatal human foreskin keratinocytes at 10 uM after 4 days relative to vehicle treated control; assay type: functional, cell-based; settings: Keratinocyte
Keratinocyte [10] = experiment: Increase in ceramide content in keratinocytes at […] after 24 hrs relative to vehicle treated control; assay type: functional

C[C@H]1[C@H](C)CC[C@]2(C(=O)O)CC[C@]3(C)C(=CC[C@@H]4[C@@]5(C)CC[C@H](O)C(C)(C)[C@@H]5CC[C@]43C)[C@H]12 [URSOLIC ACID]
fold change (FC) (Homo sapiens [1]): 1.3
fold change (FC) (Keratinocyte [2]): 2.2

CCO[C@H]1O[C@H](CO)[C@@H](O)[C@H](O)[C@H]1O
fold change (FC) (Mus musculus [3]): 1.1

O=C1CCCCCCCCCCCC(=O)OCCO1
fold change (FC) (Mus musculus [4]): 1.3

NC(=O)c1cccnc1 [NIACINAMIDE]
fold change (FC) (Homo sapiens [5]): 1.4
fold change (FC) (Homo sapiens [6]): 1.4
fold change (FC) (Keratinocyte [7]): 4.1
fold change (FC) [8]: 1.8
fold change (FC) [9]: 1.8

CC(O)C(=O)O (configuration not stated) [LACTIC ACID]
fold change (FC) (Homo sapiens [5]): 1.4
fold change (FC) (Homo sapiens [6]): 1.4
fold change (FC) (Keratinocyte [10]): 4.3
